The source of these data is ChEMBL document CHEMBL5463729, “Data for DCP probe BAY 1753011” (2023).

Molecules are shown by their SMILES.

For assay [1], the target named is [Pyruvate dehydrogenase (acetyl-transferring)] kinase isozyme 2, mitochondrial (Homo sapiens) (UniProt Q15119). Put plainly: Inhibition of PDHK2(h) at 10.0 µM in the Eurofins Kinase panel. The following applies: Compound concentration 10.0 uM.
Assay [2] concerns the target Tyrosine-protein kinase Lck (Homo sapiens) (UniProt P06239). Briefly: Inhibition of Lck(h) at 10.0 µM in the Eurofins Kinase panel. The settings on record: Compound concentration 10.0 uM.
Assay [3] has as its target Citron Rho-interacting kinase (Homo sapiens) (UniProt O14578). Briefly: Inhibition of CRIK(h) at 10.0 µM in the Eurofins Kinase panel. The following applies: Compound concentration 10.0 uM.
For assay [4], the target named is 5-hydroxytryptamine receptor 1D (Homo sapiens) (UniProt P28221). The settings on record: Compound concentration 10.0 uM.
Assay [5] deals with B1 bradykinin receptor (Homo sapiens) (UniProt P46663). The settings on record: Compound concentration 10.0 uM.
Assay [6] concerns the target T1, Muscarinic acetylcholine receptor M4 (Homo sapiens) (UniProt P08173).
T1 sequence (whole entry): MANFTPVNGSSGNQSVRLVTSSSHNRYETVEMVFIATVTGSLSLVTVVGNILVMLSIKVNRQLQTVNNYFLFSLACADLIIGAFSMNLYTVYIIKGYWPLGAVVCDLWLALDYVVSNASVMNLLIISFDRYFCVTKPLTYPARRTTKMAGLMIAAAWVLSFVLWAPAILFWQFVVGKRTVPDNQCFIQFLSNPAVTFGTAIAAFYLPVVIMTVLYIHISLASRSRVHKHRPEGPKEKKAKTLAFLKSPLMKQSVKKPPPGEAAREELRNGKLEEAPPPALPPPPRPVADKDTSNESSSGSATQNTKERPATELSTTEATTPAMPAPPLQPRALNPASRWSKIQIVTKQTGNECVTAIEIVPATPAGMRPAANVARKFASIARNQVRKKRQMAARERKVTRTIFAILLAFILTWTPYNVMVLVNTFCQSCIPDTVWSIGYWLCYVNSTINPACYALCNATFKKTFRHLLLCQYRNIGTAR
The following applies: Compound concentration 10.0 uM.

The species entered for assay [7] is Homo sapiens. The settings on record: Compound concentration 10.0 uM.
The species entered for assay [8] is Rattus norvegicus. The settings on record: Compound concentration 10.0 uM.
Assay [9] has as its target Calcium/calmodulin-dependent protein kinase type II subunit delta (Homo sapiens) (UniProt Q13557). Briefly: Inhibition of CaMKIIdelta(h) at 10.0 µM in the Eurofins Kinase panel. The following applies: Compound concentration 10.0 uM.
In assay [10] the target is Cyclin-dependent kinase-like 2 (Homo sapiens) (UniProt Q92772). Put plainly: Inhibition of CDKL2(h) at 10.0 µM in the Eurofins Kinase panel. The settings on record: Compound concentration 10.0 uM.
Assay [11] has as its target STE20/SPS1-related proline-alanine-rich protein kinase (Homo sapiens) (UniProt Q9UEW8). Put plainly: Inhibition of STK39(h) at 10.0 µM in the Eurofins Kinase panel. The following applies: Compound concentration 10.0 uM.
Assay [12] concerns the target GABA-A receptor; anion channel (Rattus norvegicus) (UniProt O09028+P15431+P18506+P18508+P19969+P20236+P23574+P23576+P28471+P28473+P30191+P62813+P63079+P63138+Q91ZM7+Q9ES14). The following applies: Compound concentration 10.0 uM.
For assay [13], the target named is Sodium-dependent noradrenaline transporter (Homo sapiens, UniProt P23975). Briefly: GPCRScan assay: inhibition of NET. Also noted: radioligand conc. used [nm] 1.3 – 5.0, parental cells stable HEK.
Assay [14] addresses GABA-A receptor; anion channel. Put plainly: GPCRScan assay: inhibition of GABAA/BZP. The format is protein-complex assay, Rattus norvegicus. On the set-up: radioligand conc. used [nm] 0.6 – 4.0, parental cells brain tissue.
The target of assay [15] is Receptor-type tyrosine-protein phosphatase C (Homo sapiens) (UniProt P08575). Put plainly: Inhibition of Protein Tyrosine Phosphatase, PTPRC (CD45) at 10 µM in the Eurofins-Panlabs enzyme assay (Eurofins_assay_190010). The settings on record: Compound concentration 10.0 uM.
Assay [16] concerns the target T2, D(4) dopamine receptor (Homo sapiens) (UniProt P21917).
T2 sequence (whole entry): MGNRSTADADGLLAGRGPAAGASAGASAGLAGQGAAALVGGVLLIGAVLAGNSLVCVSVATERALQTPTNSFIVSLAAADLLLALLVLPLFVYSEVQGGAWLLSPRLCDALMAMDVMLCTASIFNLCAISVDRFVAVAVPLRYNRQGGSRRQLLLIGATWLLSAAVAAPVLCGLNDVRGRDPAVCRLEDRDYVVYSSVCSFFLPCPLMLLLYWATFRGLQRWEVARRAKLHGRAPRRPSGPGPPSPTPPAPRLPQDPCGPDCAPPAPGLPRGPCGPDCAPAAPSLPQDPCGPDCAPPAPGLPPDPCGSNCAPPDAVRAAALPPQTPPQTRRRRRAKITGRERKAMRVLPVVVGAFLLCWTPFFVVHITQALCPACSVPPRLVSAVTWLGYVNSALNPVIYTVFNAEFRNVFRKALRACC
Put plainly: Inhibition of Dopamine D4.2 at 10 µM in the Eurofins-Panlabs radioligand binding assay (Eurofins_assay_219900). Also noted: ligand concentration 0.5 nM. The following applies: Compound concentration 10.0 uM.

The target in assay [17] is Phosphodiesterase 3 (Homo sapiens) (UniProt Q14432+Q13370). Briefly: Inhibition of Phosphodiesterase PDE3 at compound concentration of 10.0 uM in the Eurofins-Panlabs enzyme assay (Eurofins_assay_152000). The format is protein assay. Also noted: substrate with concentration 1.01 uM [3H] cAMP + cAMP, incubation time 20 min, incubation temperature 25 C. The settings on record: Compound concentration 10.0 uM.

Assay [18] addresses Progesterone receptor (Homo sapiens) (UniProt P06401). Briefly: Inhibition of Progesterone PR-B at 10 µM in the Eurofins-Panlabs radioligand binding assay (Eurofins_assay_268020). On the set-up: ligand concentration 1.4 nM. The following applies: Compound concentration 10.0 uM.
For assay [19], the target named is Mitogen-activated protein kinase 14 (Homo sapiens) (UniProt Q16539). Put plainly: Inhibition of SAPK2a(h) at 10.0 µM in the Eurofins Kinase panel. The following applies: Compound concentration 10.0 uM.
Assay [20] is filed under the species Homo sapiens. Briefly: Inhibition of Nicotinic Acetylcholine at compound concentration of 10.0 uM in the Eurofins-Panlabs radioligand binding assay (Eurofins_assay_258590). The format is protein-complex assay. The following applies: Compound concentration 10.0 uM.
Assay [21] concerns the target mTOR/FKBP12A/FKBP12B (Homo sapiens) (UniProt P62942+P68106+P42345). Briefly: Inhibition of mTOR FKBP12(h) at 10.0 µM in the Eurofins Kinase panel. The settings on record: Compound concentration 10.0 uM. The format is protein-complex assay.
Assay [22] concerns the target Sigma intracellular receptor 2 (Homo sapiens) (UniProt Q5BJF2). Briefly: Inhibition of Sigma 2 at 10 µM in the Eurofins-Panlabs radioligand binding assay (Eurofins_assay_278200). On the set-up: ligand concentration 3 nM. The following applies: Rattus norvegicus; Compound concentration 10.0 uM.
For assay [23], the target named is Beta-1 adrenergic receptor (Homo sapiens) (UniProt P08588). The following applies: Compound concentration 10.0 uM.
Assay [24] addresses ATP-sensitive inward rectifier potassium channel 11 (Cricetulus griseus) (UniProt A0A3L7HHE1). Briefly: Inhibition of Potassium Channel [KATP] at 10 µM in the Eurofins-Panlabs radioligand binding assay (Eurofins_assay_265600). The following applies: Cricetinae; Compound concentration 10.0 uM.
The species entered for assay [25] is Rattus norvegicus. Briefly: Inhibition of Rolipram at 10 µM in the Eurofins-Panlabs radioligand binding assay (Eurofins_assay_268811). The following applies: Compound concentration 10.0 uM. The format is protein assay. Also noted: ligand concentration 1.8 nM.
In assay [26] the target is Gamma-aminobutyric acid type B receptor subunit 1 (Homo sapiens) (UniProt Q9UBS5). Briefly: Inhibition of GABAB1A at compound concentration of 10.0 uM in the Eurofins-Panlabs radioligand binding assay (Eurofins_assay_228610). Also noted: ligand concentration 4 nM. The following applies: Compound concentration 10.0 uM.

Chain of Sodium-dependent noradrenaline transporter (P23975 whole entry): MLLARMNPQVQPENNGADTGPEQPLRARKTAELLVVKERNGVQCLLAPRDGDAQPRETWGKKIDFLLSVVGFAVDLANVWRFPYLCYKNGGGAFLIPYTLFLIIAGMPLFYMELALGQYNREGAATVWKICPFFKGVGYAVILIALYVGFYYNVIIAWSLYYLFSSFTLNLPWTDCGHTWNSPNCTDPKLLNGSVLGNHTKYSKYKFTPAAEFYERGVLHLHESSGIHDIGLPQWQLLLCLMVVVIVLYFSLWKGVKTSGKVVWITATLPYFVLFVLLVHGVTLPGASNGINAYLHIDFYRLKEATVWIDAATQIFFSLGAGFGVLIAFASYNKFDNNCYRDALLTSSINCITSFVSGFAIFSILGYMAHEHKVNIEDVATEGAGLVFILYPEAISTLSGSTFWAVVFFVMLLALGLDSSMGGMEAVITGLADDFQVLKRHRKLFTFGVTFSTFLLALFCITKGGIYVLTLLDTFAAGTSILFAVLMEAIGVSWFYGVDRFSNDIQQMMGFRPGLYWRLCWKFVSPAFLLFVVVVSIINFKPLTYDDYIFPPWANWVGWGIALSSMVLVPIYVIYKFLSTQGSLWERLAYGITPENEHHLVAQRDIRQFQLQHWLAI
Chain of Beta-1 adrenergic receptor (Homo sapiens) (P08588 whole entry, looked up): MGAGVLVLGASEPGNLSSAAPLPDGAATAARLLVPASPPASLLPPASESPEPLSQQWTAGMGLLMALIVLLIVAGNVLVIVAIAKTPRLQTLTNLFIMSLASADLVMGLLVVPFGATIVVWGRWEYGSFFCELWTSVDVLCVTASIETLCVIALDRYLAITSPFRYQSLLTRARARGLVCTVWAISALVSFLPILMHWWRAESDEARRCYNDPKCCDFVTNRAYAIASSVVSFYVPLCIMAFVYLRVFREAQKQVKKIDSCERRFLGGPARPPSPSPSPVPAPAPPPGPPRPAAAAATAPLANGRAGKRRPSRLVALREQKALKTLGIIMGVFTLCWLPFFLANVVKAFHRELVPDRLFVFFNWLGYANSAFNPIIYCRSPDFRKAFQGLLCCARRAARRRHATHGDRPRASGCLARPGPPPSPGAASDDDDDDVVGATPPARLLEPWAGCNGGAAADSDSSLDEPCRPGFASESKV
Chain of 5-hydroxytryptamine receptor 1D (Homo sapiens) (P28221 whole entry): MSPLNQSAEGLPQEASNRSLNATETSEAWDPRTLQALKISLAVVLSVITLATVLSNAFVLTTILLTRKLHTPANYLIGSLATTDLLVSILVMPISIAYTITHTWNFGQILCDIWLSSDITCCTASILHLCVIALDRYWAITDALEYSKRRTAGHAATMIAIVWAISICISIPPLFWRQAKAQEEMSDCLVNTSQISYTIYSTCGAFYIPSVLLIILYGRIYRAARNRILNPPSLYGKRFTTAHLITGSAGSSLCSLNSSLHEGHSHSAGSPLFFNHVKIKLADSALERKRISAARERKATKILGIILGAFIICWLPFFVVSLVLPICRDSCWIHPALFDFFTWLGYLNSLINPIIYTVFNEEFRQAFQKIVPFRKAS
Chain of ATP-sensitive inward rectifier potassium channel 11 (Cricetulus griseus) (A0A3L7HHE1 as listed by the source): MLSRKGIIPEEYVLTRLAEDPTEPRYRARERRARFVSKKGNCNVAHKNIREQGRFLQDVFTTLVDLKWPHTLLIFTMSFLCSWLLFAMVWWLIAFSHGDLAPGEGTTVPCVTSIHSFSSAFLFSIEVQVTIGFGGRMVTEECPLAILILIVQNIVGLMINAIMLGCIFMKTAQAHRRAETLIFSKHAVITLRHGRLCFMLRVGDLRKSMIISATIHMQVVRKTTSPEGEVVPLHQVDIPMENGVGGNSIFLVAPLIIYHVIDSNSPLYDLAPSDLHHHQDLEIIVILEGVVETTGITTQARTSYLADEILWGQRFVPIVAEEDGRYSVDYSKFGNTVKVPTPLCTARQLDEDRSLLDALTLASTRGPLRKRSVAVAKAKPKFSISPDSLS
Chain of Progesterone receptor (Homo sapiens) (P06401 whole entry): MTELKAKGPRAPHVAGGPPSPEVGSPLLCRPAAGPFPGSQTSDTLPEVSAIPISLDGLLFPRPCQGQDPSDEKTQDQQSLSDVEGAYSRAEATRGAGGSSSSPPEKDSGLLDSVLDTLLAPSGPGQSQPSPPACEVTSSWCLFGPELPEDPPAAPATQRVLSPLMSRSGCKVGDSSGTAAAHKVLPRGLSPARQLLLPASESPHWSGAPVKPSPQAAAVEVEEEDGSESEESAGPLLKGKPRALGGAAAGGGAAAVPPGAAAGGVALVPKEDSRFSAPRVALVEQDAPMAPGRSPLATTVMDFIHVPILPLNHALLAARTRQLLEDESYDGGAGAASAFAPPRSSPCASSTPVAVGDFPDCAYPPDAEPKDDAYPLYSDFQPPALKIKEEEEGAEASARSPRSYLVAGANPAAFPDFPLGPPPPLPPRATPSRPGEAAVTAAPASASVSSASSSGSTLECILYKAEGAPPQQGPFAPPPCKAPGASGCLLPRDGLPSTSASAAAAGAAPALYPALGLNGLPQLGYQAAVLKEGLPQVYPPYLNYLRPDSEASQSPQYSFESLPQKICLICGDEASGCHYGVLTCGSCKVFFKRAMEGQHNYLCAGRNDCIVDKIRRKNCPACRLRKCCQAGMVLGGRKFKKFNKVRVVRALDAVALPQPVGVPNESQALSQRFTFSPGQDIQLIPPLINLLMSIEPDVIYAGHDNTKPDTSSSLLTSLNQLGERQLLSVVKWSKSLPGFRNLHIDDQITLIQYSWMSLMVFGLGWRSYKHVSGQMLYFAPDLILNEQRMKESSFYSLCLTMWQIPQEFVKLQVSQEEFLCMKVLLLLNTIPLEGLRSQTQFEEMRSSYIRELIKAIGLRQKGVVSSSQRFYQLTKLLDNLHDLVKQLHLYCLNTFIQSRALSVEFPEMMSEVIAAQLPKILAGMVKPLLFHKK
Chain of Mitogen-activated protein kinase 14 (Homo sapiens) (Q16539 whole entry): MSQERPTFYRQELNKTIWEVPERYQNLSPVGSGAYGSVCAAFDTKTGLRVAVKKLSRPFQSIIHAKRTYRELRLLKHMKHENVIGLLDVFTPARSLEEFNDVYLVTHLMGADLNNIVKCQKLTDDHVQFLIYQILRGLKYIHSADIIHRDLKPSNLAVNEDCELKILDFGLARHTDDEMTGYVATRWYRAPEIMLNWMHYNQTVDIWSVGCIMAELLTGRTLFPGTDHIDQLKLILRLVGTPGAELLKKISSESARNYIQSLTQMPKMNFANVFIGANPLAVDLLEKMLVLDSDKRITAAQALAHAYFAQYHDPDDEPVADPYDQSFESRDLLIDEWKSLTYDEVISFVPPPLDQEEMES
Chain of Sigma intracellular receptor 2 (Homo sapiens) (Q5BJF2 whole entry): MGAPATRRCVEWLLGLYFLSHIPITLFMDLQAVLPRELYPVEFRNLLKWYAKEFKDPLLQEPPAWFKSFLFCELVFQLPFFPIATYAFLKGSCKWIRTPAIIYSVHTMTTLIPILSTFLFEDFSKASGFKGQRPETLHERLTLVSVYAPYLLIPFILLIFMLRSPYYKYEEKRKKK
Chain of mTOR/FKBP12A/FKBP12B (Homo sapiens) (P62942 2-108 limits assumed, other chains not shown): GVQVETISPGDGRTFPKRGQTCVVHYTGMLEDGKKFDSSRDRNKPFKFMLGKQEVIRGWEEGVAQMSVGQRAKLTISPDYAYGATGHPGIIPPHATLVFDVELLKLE
Chain of mTOR/FKBP12A/FKBP12B (Homo sapiens) (P68106 whole entry partner, other chains not shown): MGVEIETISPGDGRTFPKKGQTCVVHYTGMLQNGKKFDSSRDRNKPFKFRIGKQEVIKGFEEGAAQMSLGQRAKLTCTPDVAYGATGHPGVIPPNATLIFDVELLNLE
Chain of Tyrosine-protein kinase Lck (Homo sapiens) (P06239 2-509 limits assumed): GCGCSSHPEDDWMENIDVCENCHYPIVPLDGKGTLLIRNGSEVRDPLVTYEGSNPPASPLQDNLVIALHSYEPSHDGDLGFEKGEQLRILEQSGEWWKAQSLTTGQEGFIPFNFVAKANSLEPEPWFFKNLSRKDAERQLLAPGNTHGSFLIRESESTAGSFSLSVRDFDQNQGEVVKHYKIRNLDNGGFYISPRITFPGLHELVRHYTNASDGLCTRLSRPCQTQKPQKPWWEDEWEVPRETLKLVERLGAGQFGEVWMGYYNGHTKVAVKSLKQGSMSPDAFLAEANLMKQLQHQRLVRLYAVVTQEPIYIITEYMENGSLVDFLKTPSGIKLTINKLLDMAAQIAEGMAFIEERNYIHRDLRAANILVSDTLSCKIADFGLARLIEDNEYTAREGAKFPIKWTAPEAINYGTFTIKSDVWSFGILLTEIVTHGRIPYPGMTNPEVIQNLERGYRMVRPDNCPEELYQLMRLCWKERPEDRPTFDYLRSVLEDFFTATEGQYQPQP
Chain of B1 bradykinin receptor (Homo sapiens) (P46663 whole entry): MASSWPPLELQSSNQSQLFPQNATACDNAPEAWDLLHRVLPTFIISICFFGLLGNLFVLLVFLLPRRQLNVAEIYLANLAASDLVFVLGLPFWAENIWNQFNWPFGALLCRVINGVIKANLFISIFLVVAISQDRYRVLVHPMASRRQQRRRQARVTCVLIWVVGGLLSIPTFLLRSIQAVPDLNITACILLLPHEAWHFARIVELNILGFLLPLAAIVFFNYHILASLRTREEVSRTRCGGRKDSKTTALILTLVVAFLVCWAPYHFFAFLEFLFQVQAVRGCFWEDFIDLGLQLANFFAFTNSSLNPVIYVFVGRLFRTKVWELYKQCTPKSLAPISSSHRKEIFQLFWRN
Chain of Calcium/calmodulin-dependent protein kinase type II subunit delta (Homo sapiens) (Q13557 whole entry): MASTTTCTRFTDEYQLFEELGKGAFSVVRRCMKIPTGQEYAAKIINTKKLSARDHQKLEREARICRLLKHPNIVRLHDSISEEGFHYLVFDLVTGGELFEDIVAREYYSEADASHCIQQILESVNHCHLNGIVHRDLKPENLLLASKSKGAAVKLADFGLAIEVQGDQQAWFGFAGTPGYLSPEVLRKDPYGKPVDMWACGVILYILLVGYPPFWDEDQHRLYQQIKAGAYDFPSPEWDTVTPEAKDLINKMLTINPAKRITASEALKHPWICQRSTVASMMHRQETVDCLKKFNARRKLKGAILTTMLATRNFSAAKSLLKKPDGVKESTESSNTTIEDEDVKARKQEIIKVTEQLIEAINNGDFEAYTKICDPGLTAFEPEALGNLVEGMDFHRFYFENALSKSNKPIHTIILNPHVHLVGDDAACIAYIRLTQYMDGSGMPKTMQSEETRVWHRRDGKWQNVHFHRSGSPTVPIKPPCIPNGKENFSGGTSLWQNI

For orientation: inhibition means the drop in the measured response relative to a control, in per cent. For the compound `O=c1n(Cc2cncn2-c2cccc(Cl)c2)nc(-c2ccc(Cl)cc2)n1C[C@H](O)C(F)(F)F`, the inhibition in assay [1] was -4.87%; in [2], -7.91%; in [3] it was -2.08%; in assay [4] it was 10.1%; in assay [5], -3%; in assay [6], -9.78%. For the same compound, the inhibition in [7] is -5%; in assay [8] it was -0.38%; in [9], -4.39%; in assay [10] it was -7.41%; in assay [11], -4.72%; in assay [12], -3.13%.

A word on the pKi: it is −log10 of the Ki, conventionally taken in molar units. Turning to `C[C@H](O)c1nc(Cn2nc(-c3ccc(Cl)cc3)n(C[C@H](O)C(F)(F)F)c2=O)nn1-c1cccc(Cl)c1` [PECAVAPTAN], the Ki in assay [13] (read-out: Ki) is 1320 nM; in assay [13] (read-out: pKi (converted)), 1320 nM; in assay [14] it was 2610 nM. Besides, in [14], the pKi is on record as 5.58. The inhibition is 0% in [15]; 3% in assay [16]; 0% in [17]; 0% in assay [18]; -8.61% in assay [19]; -6% in assay [20]. In addition, the inhibition in assay [21] is 2.46%; in [22] it was 5%; in [23] it was -7.44%; in assay [24], 18%; in assay [25], -2%; in assay [26], -4%.
